The nature of data set [1]: Stability of the compound assessed as retention of lactone group at pH 7 after 8 hrs in presence of human serum albumin by HPLC analysis. It counts as ADME. The settings on record: for Stability: buffer, pH 7, 8 h; for remaining at 8 h: human serum albumin solution, pH 7, read-out: Stability.
The target in data set [2] is T1, DNA topoisomerase 1 (Homo sapiens) (UniProt P11387).
T1 sequence (whole entry): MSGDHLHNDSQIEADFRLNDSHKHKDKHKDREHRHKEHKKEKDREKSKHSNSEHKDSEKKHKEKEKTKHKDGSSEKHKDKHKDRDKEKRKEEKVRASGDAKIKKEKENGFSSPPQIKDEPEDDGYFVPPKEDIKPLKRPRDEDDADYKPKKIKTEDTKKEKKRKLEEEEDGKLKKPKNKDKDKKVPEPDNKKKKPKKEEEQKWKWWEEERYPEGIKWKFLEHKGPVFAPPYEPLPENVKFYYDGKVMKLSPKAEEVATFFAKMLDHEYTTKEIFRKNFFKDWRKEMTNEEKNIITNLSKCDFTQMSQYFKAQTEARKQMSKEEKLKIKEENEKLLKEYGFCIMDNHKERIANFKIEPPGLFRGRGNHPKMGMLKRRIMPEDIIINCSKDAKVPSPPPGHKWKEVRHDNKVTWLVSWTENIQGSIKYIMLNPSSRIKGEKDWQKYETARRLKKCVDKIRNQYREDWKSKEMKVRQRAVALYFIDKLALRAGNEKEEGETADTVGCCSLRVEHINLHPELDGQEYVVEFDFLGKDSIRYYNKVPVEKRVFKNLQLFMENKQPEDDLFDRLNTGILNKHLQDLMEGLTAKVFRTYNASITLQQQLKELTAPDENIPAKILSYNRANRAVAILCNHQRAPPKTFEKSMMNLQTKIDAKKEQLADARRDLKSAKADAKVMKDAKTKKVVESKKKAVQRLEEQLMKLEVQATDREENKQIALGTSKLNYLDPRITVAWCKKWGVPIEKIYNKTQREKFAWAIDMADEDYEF
The experiment in a line: Inhibition of topo 1-mediated relaxation of supercoiled pBR322 at 10 to 100 uM after 30 mins using ethidium bromide by agarose-gel electrophoresis.

For a further data set, the system named is HCT-116. In words: Cytotoxicity against human HCT116 after 72 hrs by SRB assay. The format is functional, cell-based. The settings on record: HCT-116, 72 h. In general terms: The SRB assay estimates cell density from bound dye.
A further data set deals with A549. In words: Cytotoxicity against human A549 after 72 hrs by SRB assay. It counts as functional, cell-based. The settings on record: A549, 72 h.
Data set [3] can be described thus: Stability of the compound assessed as retention of lactone group in phosphate buffer at pH 7 after 8 hrs by HPLC analysis. The format is physicochemical. The settings on record: for Stability: buffer, pH 7, 8 h; for remaining at 8 h: phosphate buffer, pH 7, read-out: Stability.

Each structure is given as a SMILES string. Calls of active or inactive are those of the source. The rule behind the calls is not given here. Where only a bound is given, the exact number is not on record here.

Consider `CC[C@]1(O)c2cc3n(c(=O)c2COC(=O)[C@@H]1OC(C)=O)Cc1cc2ccccc2nc1-3`, for which the Stability entry in data set [1] and in data set [3] was “Stable” each time. Besides, the inhibition entry in data set [2] was “Active”. For the same compound, the IC50 (as a rule, the concentration that gives 50% inhibition) in the data set on HCT-116 was determined as 14.2 nM; with A549 it was 49.2 nM.
For the compound `CC[C@]1(O)c2cc3n(c(=O)c2COC(=O)[C@@H]1OC(C)=O)Cc1cc2cc4c(cc2nc1-3)OCO4`, the Stability entry in data set [1] and in data set [3] was “Stable” in each case. Also, in data set [2], the inhibition result was “Active”. For the same compound, the results for the IC50 in the data set with HCT-116 and in the data set on A549 were 2.1 nM and 1.2 nM, respectively.
Consider `CC[C@]1(O)c2cc3n(c(=O)c2COC(=O)[C@@H]1O)Cc1cc2cc(OC)ccc2nc1-3`, for which, in data set [2], the inhibition result is “Active”. The concentration for half-maximal inhibition (IC50) in the data set on HCT-116 was found to be 10.6 nM; in the data set with A549 it was 4.8 nM.
Regarding `CC[C@]1(O)c2cc3n(c(=O)c2COC(=O)[C@@H]1OC(C)=O)Cc1cc2cc(OC)ccc2nc1-3`, the inhibition entry in data set [2] is “Active”. Moreover, the concentration for half-maximal inhibition (IC50) in the data set with HCT-116 was determined as 4.4 nM; in the data set on A549, 4.7 nM.
On to `CC[C@@]1(O)C(=O)OCc2c1cc1n(c2=O)Cc2cc3cc(O)ccc3nc2-1` [HYDROXYCAMPTOTHECIN], for which the inhibition entry in data set [2] is “Active”. Also, the results for the half-inhibitory concentration (IC50) in the data set with HCT-116 and in the data set with A549 were 31.2 nM and 33.6 nM, respectively.
Turning to `CC[C@]1(O)c2cc3n(c(=O)c2COC(=O)[C@@H]1O)Cc1cc2cc4c(cc2nc1-3)OCO4`, in data set [2], the inhibition result is “Active”. Also, the 50% inhibitory concentration (IC50) with HCT-116 and in the data set on A549 was 3.1 nM in each case.
Consider `CC[C@]1(O)c2cc3n(c(=O)c2COC(=O)[C@@H]1O)Cc1cc2cc4c(cc2nc1-3)OCCO4`, for which the inhibition entry in data set [2] is “Active”. For the same compound, the IC50 came to 3.4 nM with HCT-116 and 2.9 nM in the data set on A549.
Turning to `CC[C@@]1(O)C(=O)OCc2c1cc1n(c2=O)Cc2cc3ccccc3nc2-1` [CAMPTOTHECIN], the remaining at 8 h in data set [1] was 20%; in data set [3], under 40%. Besides, the 50% inhibitory concentration (IC50) with HCT-116 came to 22.9 nM; in the data set with A549 it was 33.8 nM.
As to `CC[C@]1(O)c2cc3n(c(=O)c2COC(=O)[C@@H]1OC(C)=O)Cc1cc2cc4c(cc2nc1-3)OCCO4`, the figures for the remaining at 8 h in data set [1] and in data set [3] were 55% and 90%, respectively. Besides, the inhibition entry in data set [2] is “Active”. Further, the figures for the IC50 with HCT-116 and in the data set on A549 were 4.9 nM and 4.6 nM, respectively.
In the case of `CC[C@]1(O)c2cc3n(c(=O)c2COC(=O)[C@@H]1O)Cc1cc2ccccc2nc1-3`, the Stability result in data set [1] and in data set [3] was “Stable” each time. For the same compound, the inhibition result in data set [2] was “Active”. Further, the results for the concentration for half-maximal inhibition (IC50) with HCT-116 and in the data set on A549 were 49.3 nM and 16.8 nM, respectively.
Consider `CCc1c2c(nc3ccc(O)cc13)-c1cc3c(c(=O)n1C2)COC(=O)[C@]3(O)CC`, for which, in data set [2], the inhibition result is “Active”.

Values taken from ChEMBL document CHEMBL2040811, “Synthesis and biological evaluation of new homocamptothecin analogs” (Eur J Med Chem, 2012).
